Test system: Micrococcus luteus
Test: Antimicrobial activity against Micrococcus luteus at 10 ug after 24 hrs by paper disk method
Assay type: functional
Conditions: read-out: DIZ

Compound	zone of inhibition at 10 µg/disc [mm]
CC(C)[C@H](NC(=O)Cc1ccccc1)C(=O)N[C@H](CC(=O)O)C(=O)N[C@@H](C)C(=O)N[C@@H](C(=O)NCC(=O)N[C@H](C)C(=O)N[C@@H](Cc1ccccc1)C(=O)O)[C@@H](O)C(C)C	7.1
CC[C@H]1OC(=O)[C@H](C)[C@@H](O[C@H]2C[C@@](C)(OC)[C@@H](O)[C@H](C)O2)[C@H](C)[C@@H](O[C@@H]2O[C@H](C)C[C@H](N(C)C)[C@H]2O)[C@](C)(O)C[C@@H](C)C(=O)[C@H](C)[C@@H](O)[C@]1(C)O [ERYTHROMYCIN]	25
